Measurements reported in ChEMBL document CHEMBL4665772, “Secoiridoids and Iridoids from Morinda asteroscepa” (J Nat Prod, 2020).
The source made the active and inactive calls. No cut-off for these calls is given here.

Test system: Plasmodium falciparum
Assay: Antimalarial activity against Plasmodium falciparum 3D7 at 10 uM
Type: functional, organism-based

With `COC(=O)[C@@H](CO)[C@H]1[C@H](O)C[C@](C)(OC(C)=O)[C@H]1C(=O)O` as the compound, how does the Activity read?
The Activity was “inactive”.

How did the Activity turn out when `COC(=O)[C@@H](CO)[C@H]1[C@H](O)C[C@](C)(O)[C@H]1C(=O)O` was run?
Its Activity is “inactive”.

How did the Activity turn out when `COC(=O)[C@@H]1COC(=O)[C@H]2[C@@H]1[C@@H](O)C[C@@]2(C)OC(C)=O` was run?
Its Activity is “inactive”.

For `COC(=O)C1=CO[C@@H](O[C@@H]2O[C@H](CO)[C@@H](O)[C@H](O)[C@H]2O)[C@H]2[C@@H]1[C@H](O)C[C@]2(C)OC(C)=O`, which Activity is on record?
Its Activity is “inactive”.
